One data set has as its system MCF7 cells. As to the kind of experiment: Inhibition of the proliferation of MCF7 cells (Cell Titer-Glo). Format: cell-based. The note with it: Homo sapiens, MCF-7 cells, 72 hours, read-out: IC50 value of inhibition effect on the proliferation of MCF7 cells. The protocol: The object of this experiment was to determine the inhibition effect of the compounds on the proliferation activity of MCF7 cells, and the in vitro activity of the compounds was evaluated according to the IC50 value.
After incubation for 24 hours, the medium was removed, then 90 μl of the medium containing 2% FBS and 10 μl of the drug were added to each well, 10 μl of DMSO were added to the control group, and the blank group contained only 100 μl medium containing 2% FBS. The plate was gently shaken and incubated in a incubator at 37° C., 5% CO2. After 72 hours, 50 μl of mixed Cell Titer-Glo (Promega, Cat. No. G7571) were added to each well. The plate was shaken until the ingredients were well mixed, and placed at room temperature for 10 minutes, then the chemiluminescence signal value was determined.
The values of the chemiluminescence signals vs the logarithmic concentrations of the compounds were plotted using Graghpad Prism to obtain IC50 values.
A general note: ATP-based viability assays read luminescence as a measure of living cells.

Data set [1] in a line: Pharmacokinetics assay in BALB/C nude mice after intragastrical administration. Type of data set: in vivo. The note with it: female, mouse, plasma, po, 3 mg/kg; for AUC: read-out: Area Under Curve AUC; for CL/F: read-out: Clearance CL/F (converted); for half-life: read-out: Half-Life t½ (converted); for MRT: read-out: Mean Residence Time MRT; for Cmax: read-out: Plasma Conc. Cmax. The protocol:
BALB/C nude mice were used as test animals. The drug concentration in plasma at different time points was determined by LC/MS/MS after intragastrical administration of the compounds of Examples 10, 14, 20, 21, 57, 68, 71, 73, 74, 76 and 89 to BALB/C nude mice. The pharmacokinetic behavior of the compounds of the present invention was studied and evaluated in BALB/C nude mice.
Ninety-nine (99) female BALB/C nude mice were equally divided into 11 groups, which were purchased from SINO-BRITSH SIPPR/BK LAB. ANIMAL LTD., CO, with Certificate No.: SCXK (Shanghai) 2008-0016.
The appropriate amount of each test compound was weighed, and successively added with 9% PEG400+0.5% tween 80+0.5% PVP+90% aqueous solution of 0.5% CMC.
After an overnight fast, 99 female BALB/C nude mice were equally divided into 11 groups, and administered the test compounds intragastrically at an administration volume of 0.2 mL/10 g.
Blood (0.1 mL) was sampled (3 mice at each time point) at 0.5, 1.0, 2.0, 4.0, 6.0, 8.0, 11.0 and 24.0 hours after administration. The samples were stored in heparinized test tubes, and centrifuged for 10 minutes at 3,500 rpm to separate the blood plasma. The plasma samples were stored at −20° C. The plasma concentration of the test compounds in BALB/C nude mice after intragastrical administration was determined by LC/MS/MS.
Pharmacokinetic parameters of the compounds of Examples 10, 14, 20, 21, 57, 68, 71, 73, 74, 76 and 89 of the present invention are shown below.

`CC1Cc2cc(O)ccc2C(c2c(F)cc(/C=C/C(=O)O)cc2F)N1CC(C)(C)F` [Example 3, (E)-3-(3,5-difluoro-4-((1S,3R/1R,3S)-2-(2-fluoro-2-methylpropyl)-6-hydroxy-3-methyl-1,2,3,4-tetrahydroisoquinolin-1-yl)phenyl)acrylic acid]: the IC50 in the data set with MCF7 cells was found to be 2.12 nM. In the case of `Cc1ncc(-c2ccc3c(c2)CC(C)N(CC(C)(C)F)C3c2c(F)cc(/C=C/C(=O)O)cc2F)s1` [Example 10, (E)-3-(3,5-difluoro-4-((1S,3R/1R,3S)-2-(2-fluoro-2-methylpropyl)-3-methyl-6-(2-methylthiazol-5-yl)-1,2,3,4-tetrahydroisoquinolin-1-yl)phenyl)acrylic acid], in data set [1], the AUC was 15.4 µg·h/mL, the CL/F is 3.24 L/h/kg, the half-life was 4.11 h and the mean residence time MRT stood at 5.72 h. The Cmax in data set [1] turned out to be 2.6 µg/mL. The IC50 in the data set with MCF7 cells was found to be 0.49 nM.

`Cc1ncc(-c2ccc3c(c2)C[C@@H](C)N(CC(C)(C)F)[C@@H]3c2c(F)cc(/C=C/C(=O)O)cc2F)s1` [Example 11, (E)-3-(3,5-difluoro-4-((1S,3R)-2-(2-fluoro-2-methylpropyl)-3-methyl-6-(2-methylthiazol-5-yl)-1,2,3,4-tetrahydroisoquinolin-1-yl)phenyl)acrylic acid]: the IC50 with MCF7 cells stood at 0.08 nM. As for `CCn1cc(-c2ccc3c(c2)CC(C)N(CC(C)(C)F)C3c2c(F)cc(/C=C/C(=O)O)cc2F)cn1` [Example 20, (E)-3-(4-((1S,3R/1R,3S)-6-(1-ethyl-1H-pyrazol-4-yl)-2-(2-fluoro-2-methylpropyl)-3-methyl-1,2,3,4-tetrahydroisoquinolin-1-yl)-3,5-difluorophenyl)acrylic acid], in data set [1], the AUC was found to be 13 µg·h/mL, the CL/F was 3.83 L/h/kg, the half-life is 3.27 h and the MRT is 4.07 h. Further, the Cmax in data set [1] worked out at 3.29 µg/mL. Moreover, the IC50 in the data set with MCF7 cells worked out at 0.03 nM. Turning to `CCn1cc(-c2ccc3c(c2)C[C@@H](C)N(CC(C)(C)F)[C@@H]3c2c(F)cc(/C=C/C(=O)O)cc2F)cn1` [Example 21, (E)-3-(4-((1S,3R)-6-(1-ethyl-1H-pyrazol-4-yl)-2-(2-fluoro-2-methylpropyl)-3-methyl-1,2,3,4-tetrahydroisoquinolin-1-yl)-3,5-difluorophenyl)acrylic acid], in data set [1], the AUC turned out to be 10.1 µg·h/mL, the CL/F was 4.96 L/h/kg, the half-life is 2.52 h and the MRT amounted to 2.71 h. The Cmax in data set [1] was 4.3 µg/mL. In the data set on MCF7 cells, the IC50 was determined as 0.11 nM.

On to `CCn1cc(-c2ccc3c(c2)C[C@H](C)N(CC(C)(C)F)[C@H]3c2c(F)cc(/C=C/C(=O)O)cc2F)cn1` [Example 22, (E)-3-(4-((1R,3S)-6-(1-ethyl-1H-pyrazol-4-yl)-2-(2-fluoro-2-methylpropyl)-3-methyl-1,2,3,4-tetrahydroisoquinolin-1-yl)-3,5-difluorophenyl)acrylic acid], for which the IC50 in the data set with MCF7 cells came to 17.4 nM. For the compound `C[C@@H]1Cc2cc(-c3cn[nH]c3)ccc2[C@@H](c2c(F)cc(/C=C/C(=O)O)cc2F)N1CC(C)(C)F` [Example 25, (E)-3-(3,5-difluoro-4-((1S,3R)-2-(2-fluoro-2-methylpropyl)-3-methyl-6-(1H-pyrazol-4-yl)-1,2,3,4-tetrahydroisoquinolin-1-yl)phenyl)acrylic acid], the IC50 in the data set with MCF7 cells stood at 0.22 nM. Take `CC1Cc2cc(-c3cccnc3)ccc2C(c2c(F)cc(/C=C/C(=O)O)cc2F)N1CC(C)(C)F` [Example 28, (E)-3-(3,5-difluoro-4-((1S,3R/1R,3S)-2-(2-fluoro-2-methylpropyl)-3-methyl-6-(pyridin-3-yl)-1,2,3,4-tetrahydroisoquinolin-1-yl)phenyl)acrylic acid]: in the data set on MCF7 cells, the IC50 came out at 3.71 nM. Same read-out and setting: then `CNC(=O)Nc1ccc2c(c1)CC(C)N(CC(C)(C)F)C2c1c(F)cc(/C=C/C(=O)O)cc1F` [Example 29, (E)-3-(3,5-difluoro-4-((1S,3R/1R,3S)-2-(2-fluoro-2-methylpropyl)-3-methyl-6-(3-methylureido)-1,2,3,4-tetrahydroisoquinolin-1-yl)phenyl)acrylic acid], with 4.82 nM; and `CC1Cc2cc(NC(=O)N(C)C)ccc2C(c2c(F)cc(/C=C/C(=O)O)cc2F)N1CC(C)(C)F` [Example 44, (E)-3-(4-((1S,3R/1R,3S)-6-(3,3-dimethylureido)-2-(2-fluoro-2-methylpropyl)-3-methyl-1,2,3,4-tetrahydroisoquinolin-1-yl)-3,5-difluorophenyl)acrylic acid], with 1.59 nM; and `CCc1nc(-c2ccc3c(c2)CC(C)N(CC(C)(C)F)C3c2c(F)cc(/C=C/C(=O)O)cc2F)no1` [Example 46, (E)-3-(4-((1S,3R/1R,3S)-6-(5-ethyl-1,2,4-oxadiazol-3-yl)-2-(2-fluoro-2-methylpropyl)-3-methyl-1,2,3,4-tetrahydroisoquinolin-1-yl)-3,5-difluorophenyl)acrylic acid], with 3.66 nM. For the compound `CC1Cc2cc(-c3nnn(C)n3)ccc2C(c2c(F)cc(/C=C/C(=O)O)cc2F)N1CC(C)(C)F` [Example 51, (E)-3-(3,5-difluoro-4-((1S,3R/1R,3S)-2-(2-fluoro-2-methylpropyl)-3-methyl-6-(2-methyl-2H-tetrazol-5-yl)-1,2,3,4-tetrahydroisoquinolin-1-yl)phenyl)acrylic acid], the IC50 in the data set on MCF7 cells is 3.07 nM. `Cc1noc(-c2ccc3c(c2)CC(C)N(CC(C)(C)F)C3c2c(F)cc(/C=C/C(=O)O)cc2F)n1` [Example 53, (E)-3-(3,5-difluoro-4-((1S,3R/1R,3S)-2-(2-fluoro-2-methylpropyl)-3-methyl-6-(3-methyl-1,2,4-oxadiazol-5-yl)-1,2,3,4-tetrahydroisoquinolin-1-yl)phenyl)acrylic acid]: in the data set on MCF7 cells, the IC50 is 15 nM. For the compound `C[C@H]1Cc2cc(-c3cnn(C)c3)ccc2[C@H](c2c(F)cc(/C=C/C(=O)O)cc2F)N1CC(C)(C)F` [Example 56, (E)-3-(3,5-difluoro-4-((1R,3S)-2-(2-fluoro-2-methylpropyl)-3-methyl-6-(1-methyl-1H-pyrazol-4-yl)-1,2,3,4-tetrahydroisoquinolin-1-yl)phenyl)acrylic acid], in the data set with MCF7 cells, the IC50 stood at 0.01 nM. With `CC1Cc2cc(-c3ccc(-c4cnn(C)c4)nc3)ccc2C(c2c(F)cc(/C=C/C(=O)O)cc2F)N1CC(C)(C)F` [Example 61, (E)-3-(3,5-difluoro-4-((1S,3R/1R,3S)-2-(2-fluoro-2-methylpropyl)-3-methyl-6-(6-(1-methyl-1H-pyrazol-4-yl)pyridin-3-yl)-1,2,3,4-tetrahydroisoquinolin-1-yl)phenyl)acrylic acid], in the data set with MCF7 cells, the IC50 was 3.58 nM. On to `CC1Cc2c(oc3c(F)cccc23)C(c2c(F)cc(/C=C/C(=O)O)cc2F)N1CC(C)(C)F` [Example 84, (E)-3-(3,5-difluoro-4-((1R,3R/1S,3S)-8-fluoro-2-(2-fluoro-2-methylpropyl)-3-methyl-1,2,3,4-tetrahydrobenzofuro[2,3-c]pyridin-1-yl)phenyl)acrylic acid], for which the IC50 in the data set on MCF7 cells amounted to 4.21 nM. On to `CC1Cc2c(oc3ccc(Br)cc23)C(c2c(F)cc(/C=C/C(=O)O)cc2F)N1CC(C)(C)F` [Example 87, (E)-3-(4-((1R,3R/1S,3S)-6-bromo-2-(2-fluoro-2-methylpropyl)-3-methyl-1,2,3,4-tetrahydrobenzofuro[2,3-c]pyridin-1-yl)-3,5-difluorophenyl)acrylic acid], for which the IC50 in the data set on MCF7 cells stood at 9.27 nM. As for `CC1Cc2c(oc3ccc(-c4cccnc4)cc23)C(c2c(F)cc(/C=C/C(=O)O)cc2F)N1CC(C)(C)F` [Example 90, (E)-3-(3,5-difluoro-4-((1R,3R/1S,3S)-2-(2-fluoro-2-methylpropyl)-3-methyl-6-(pyridin-3-yl)-1,2,3,4-tetrahydrobenzofuro[2,3-c]pyridin-1-yl)phenyl)acrylic acid], the IC50 in the data set with MCF7 cells was 0.21 nM. In the case of `CC(C)CN1C(C)Cc2c(ccc3[nH]ncc23)C1c1c(F)cc(/C=C/C(=O)O)cc1F` [Example 92, (E)-3-(3,5-difluoro-4-((6S,8R/6R,8S)-7-isobutyl-8-methyl-6,7,8,9-tetrahydro-3H-pyrazolo[4,3-f]isoquinolin-6-yl)phenyl)acrylic acid], the IC50 with MCF7 cells was determined as 0.99 nM.

As usually defined, the AUC is the area under the concentration-time curve, a measure of exposure. By half-life is commonly meant the time in which the quantity being followed falls by half. What is called MRT is the average time that molecules of a dose stay in the body. Usually Cmax stands for the maximum level reached in the sampled fluid or tissue.
